Experimental findings from ChEMBL document CHEMBL2074019, “Functional characterization of human organic anion transporting polypeptide B (OATP-B) in comparison with liver-specific OATP-C” (Pharm Res, 2001) are described below.

Structures can show the parent of a compound that is named as a salt.

In general, Ki refers to a measure of affinity in units of concentration, obtained from inhibition or displacement. The Km is the substrate concentration at which the rate is half of its maximum.

Common to all, as to assay type: functional, cell-based
Data set [1] has as its target T1, Solute carrier organic anion transporter family member 1B1 (Homo sapiens, UniProt Q9Y6L6).
T1 sequence (Q9Y6L6 whole entry): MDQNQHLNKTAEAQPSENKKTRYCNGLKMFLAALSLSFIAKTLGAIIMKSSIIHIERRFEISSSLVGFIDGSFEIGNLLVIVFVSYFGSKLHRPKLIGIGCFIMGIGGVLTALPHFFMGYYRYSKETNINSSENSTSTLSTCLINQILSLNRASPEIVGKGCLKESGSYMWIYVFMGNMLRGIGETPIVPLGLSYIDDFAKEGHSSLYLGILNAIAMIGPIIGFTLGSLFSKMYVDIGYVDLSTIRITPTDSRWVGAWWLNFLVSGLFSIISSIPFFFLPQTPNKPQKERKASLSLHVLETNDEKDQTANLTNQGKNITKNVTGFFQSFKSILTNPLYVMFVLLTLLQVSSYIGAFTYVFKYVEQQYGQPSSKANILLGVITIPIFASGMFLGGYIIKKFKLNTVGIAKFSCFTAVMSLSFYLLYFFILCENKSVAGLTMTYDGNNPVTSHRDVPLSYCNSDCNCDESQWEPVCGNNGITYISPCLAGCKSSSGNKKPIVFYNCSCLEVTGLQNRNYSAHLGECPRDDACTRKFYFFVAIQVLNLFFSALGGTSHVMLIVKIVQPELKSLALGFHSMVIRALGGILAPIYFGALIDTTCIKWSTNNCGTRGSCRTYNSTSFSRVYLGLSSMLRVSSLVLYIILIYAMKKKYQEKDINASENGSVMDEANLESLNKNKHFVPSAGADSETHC
The data set is described as follows: TP_TRANSPORTER: inhibition of E1S uptake (E1S: 0.04 uM, Estrone-3-glucuronide: 100 uM) in OATP-C-expressing HEK293 cells. To be noted: hek293, 100 µM.

Data set [2] concerns the target T1, Solute carrier organic anion transporter family member 1B1. The data set is described as follows: TP_TRANSPORTER: inhibition of E1S uptake (E1S: 0.04 uM, Estradiol-3-sulfate: 100 uM) in OATP-C-expressing HEK293 cells. Particulars: hek293, 100 µM.
The target of data set [3] is T2, Solute carrier organic anion transporter family member 2B1 (Homo sapiens, UniProt O94956).
T2 sequence (O94956 whole entry): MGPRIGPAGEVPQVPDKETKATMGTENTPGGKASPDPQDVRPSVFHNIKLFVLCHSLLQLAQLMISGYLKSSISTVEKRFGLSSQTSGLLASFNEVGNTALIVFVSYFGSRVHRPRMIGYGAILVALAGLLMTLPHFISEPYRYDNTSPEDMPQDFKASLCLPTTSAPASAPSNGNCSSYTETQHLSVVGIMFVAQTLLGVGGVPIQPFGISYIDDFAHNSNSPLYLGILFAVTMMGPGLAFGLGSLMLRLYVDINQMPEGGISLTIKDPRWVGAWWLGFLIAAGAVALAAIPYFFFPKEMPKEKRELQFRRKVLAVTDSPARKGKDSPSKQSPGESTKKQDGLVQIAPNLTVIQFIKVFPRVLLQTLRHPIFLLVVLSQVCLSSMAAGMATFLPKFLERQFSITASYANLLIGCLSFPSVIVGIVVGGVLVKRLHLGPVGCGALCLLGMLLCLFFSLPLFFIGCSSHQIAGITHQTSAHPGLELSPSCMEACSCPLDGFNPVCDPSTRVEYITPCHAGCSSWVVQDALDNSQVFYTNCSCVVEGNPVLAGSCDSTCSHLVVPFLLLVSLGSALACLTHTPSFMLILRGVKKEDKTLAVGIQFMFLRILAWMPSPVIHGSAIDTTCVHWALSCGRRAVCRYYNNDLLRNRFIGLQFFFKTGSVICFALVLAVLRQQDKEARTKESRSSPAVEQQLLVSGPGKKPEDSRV
The data set is described as follows: TP_TRANSPORTER: inhibition of E1S uptake (E1S: 0.04 uM, Estradiol-3-sulfate: 100 uM) in OATP-B-expressing HEK293 cells. Particulars: hek293, 100 µM.

The target of data set [4] is T1, Solute carrier organic anion transporter family member 1B1. The data set is described as follows: TP_TRANSPORTER: inhibition of E1S uptake (E1S: 0.04 uM, E217betaG: 100 uM) in OATP-C-expressing HEK293 cells. Particulars: hek293, 100 µM.
Data set [5] has the same target. The data set is described as follows: TP_TRANSPORTER: inhibition of E217betaG uptake in OATP-C-expressing HEK293 cells.
Data set [6] shares this target. The data set is described as follows: TP_TRANSPORTER: inhibition of E1S uptake (E1S: 0.04 uM, E2 3SO4 17betaG: 100 uM) in OATP-C-expressing HEK293 cells. To be noted: hek293, 100 µM.
The target is the same in data set [7]. The data set is described as follows: TP_TRANSPORTER: inhibition of E1S uptake (E1S: 0.04 uM, beta-Estradiol: 100 uM) in OATP-C-expressing HEK293 cells. To be noted: hek293, 100 µM.
The target in data set [8] is T2, Solute carrier organic anion transporter family member 2B1. The data set is described as follows: TP_TRANSPORTER: inhibition of E1S uptake (E1S: 0.04 uM, beta-Estradiol: 100 uM) in OATP-B-expressing HEK293 cells. Particulars: hek293, 100 µM.
Data set [9] shares this target. The data set is described as follows: TP_TRANSPORTER: inhibition of E1S uptake (E1S: 0.04 uM, #Estrone: 100 uM) in OATP-B-expressing HEK293 cells. To be noted: hek293, 100 µM.
Data set [10] addresses T1, Solute carrier organic anion transporter family member 1B1. The data set is described as follows: TP_TRANSPORTER: inhibition of E1S uptake (E1S: 0.04 uM, #Estrone: 100 uM) in OATP-C-expressing HEK293 cells. Particulars: hek293, 100 µM.
Substrate in data set [11]: C[C@]12CC[C@@H]3c4ccc(O)cc4CC[C@H]3[C@@H]1CC[C@@H]2O[C@@H]1O[C@H](C(=O)O)[C@@H](O)[C@H](O)[C@H]1O
The data set is described as follows: TP_TRANSPORTER: uptake in OATP-C-expressing HEK293 cells.

Substrate in data set [12]: C[C@]12CC[C@@H]3c4ccc(OS(=O)(=O)O)cc4CC[C@H]3[C@@H]1CCC2=O
The data set is described as follows: TP_TRANSPORTER: uptake in OATP-B-expressing HEK293 cells.

In the case of `C[C@]12CC[C@@H]3c4ccc(O[C@@H]5O[C@H](C(=O)O)[C@@H](O)[C@H](O)[C@H]5O)cc4CC[C@H]3[C@@H]1CCC2=O`, the Activity entry in data set [1] was “inhibitor [(at a rough estimate) 40 % of control]”.

With `C[C@]12CC[C@@H]3c4ccc(OS(=O)(=O)O)cc4CC[C@H]3[C@@H]1CC[C@@H]2O`, the Activity result in [2] was “inhibitor [(at a rough estimate) 10 % of control]”; in data set [3], “inhibitor [(at a rough estimate) 30 % of control]”.

Take `C[C@]12CC[C@@H]3c4ccc(O)cc4CC[C@H]3[C@@H]1CC[C@@H]2O[C@@H]1O[C@H](C(=O)O)[C@@H](O)[C@H](O)[C@H]1O` [ESTRADIOL 17B GLUCURONIDE]: in data set [4], the Activity entry is “inhibitor [(at a rough estimate) <1 % of control]”. In [5], this molecule returned a Ki of 4430 nM.

In the case of `C[C@]12CC[C@@H]3c4ccc(OS(=O)(=O)O)cc4CC[C@H]3[C@@H]1CC[C@@H]2O[C@@H]1O[C@H](C(=O)O)[C@@H](O)[C@H](O)[C@H]1O` [ESTRADIOL GLUCURONIDE SULFATE], in [6], the Activity result is “inhibitor [(at a rough estimate) 40 % of control]”.

For `C[C@]12CC[C@@H]3c4ccc(O)cc4CC[C@H]3[C@@H]1CC[C@@H]2O` [ESTRADIOL], the Activity result in data set [7] is “inhibitor [(at a rough estimate) 35 % of control]”; in [8], “inhibitor [(at a rough estimate) 60 % of control]”.

In the case of `C[C@]12CC[C@@H]3c4ccc(OS(=O)(=O)O)cc4CC[C@H]3[C@@H]1CCC2=O` [ESTRONE SULFURIC ACID], in data set [5], the Ki is 45.8 nM. This lies in the double-digit nanomolar range.

`C[C@]12CC[C@@H]3c4ccc(O)cc4CC[C@H]3[C@@H]1CCC2=O` [ESTRONE]: the results for the Activity result in data set [9] and in data set [10] were “inhibitor [(at a rough estimate) 45 % of control]” and “inhibitor [(at a rough estimate) 40 % of control]”, respectively.

B1: Solute carrier organic anion transporter family member 1B1 (Homo sapiens) (protein)
chain: T1 sequence (Q9Y6L6 whole entry)
With B1, the Km in data set [11] was found to be 3.71 µM.

B2: Solute carrier organic anion transporter family member 2B1 (Homo sapiens) (protein)
chain: T2 sequence (O94956 whole entry)
Regarding B2, in data set [12], the Km came out at 12.5 µM.
